Measured values: ChEMBL document CHEMBL5576073, “Design and synthesis of novel fluorene derivatives as inhibitors of pyruvate dehydrogenase kinase” (Bioorg Med Chem Lett, 2024)
In brackets after ≈: the same amount, converted by molar mass. Activity calls are given as the source filed them. The calls are words filed in the database; no cut-off is given here.

Columns and labels:
[1] = target: [Pyruvate dehydrogenase (acetyl-transferring)] kinase isozyme 2, mitochondrial (Homo sapiens, UniProt Q15119); assay: Inhibition of human recombinant PDHK2 assessed as residual PDH activity in presence of ATP using sodium pyruvate/Coenzyme A/thiamine pyrophosphate as substrates incubated for 90 mins by UV-transparent microplate analysis
[2] = Aqueous solubility of compound in PBS at pH 7.2; type: physicochemical
[3] = Apparent permeability of compound in human Caco-2 cells; type: ADME, cell-based
[4] = Metabolic stability in human liver s9 fraction measured at 60 mins; type: ADME, subcellular; conditions: read-out: Stability
[5] = target: [Pyruvate dehydrogenase (acetyl-transferring)] kinase isozyme 4, mitochondrial (Homo sapiens, UniProt Q16654); assay: Inhibition of PDHK4 (unknown origin)
Chain of [Pyruvate dehydrogenase (acetyl-transferring)] kinase isozyme 4, mitochondrial (Q16654 whole entry): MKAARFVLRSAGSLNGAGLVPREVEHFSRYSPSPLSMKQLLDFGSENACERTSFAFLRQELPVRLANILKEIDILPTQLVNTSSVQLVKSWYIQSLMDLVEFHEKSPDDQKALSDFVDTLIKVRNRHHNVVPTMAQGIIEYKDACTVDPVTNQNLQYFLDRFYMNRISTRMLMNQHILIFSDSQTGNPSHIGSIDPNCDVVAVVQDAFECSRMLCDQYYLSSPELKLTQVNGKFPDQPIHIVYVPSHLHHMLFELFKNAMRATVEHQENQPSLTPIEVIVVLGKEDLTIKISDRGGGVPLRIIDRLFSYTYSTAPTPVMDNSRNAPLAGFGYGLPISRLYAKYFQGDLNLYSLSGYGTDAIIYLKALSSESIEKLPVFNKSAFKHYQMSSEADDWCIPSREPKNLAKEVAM

[6] = Total body clearance in Sprague-Dawley rat at 1 mg/kg, iv measured for 25 hrs by LC-MS/MS analysis; type: ADME, organism-based; conditions: in vivo
[7] = Volume of distribution at steady state in Sprague-Dawley rat at 1 mg/kg, iv measured for 25 hrs by LC-MS/MS analysis; type: ADME, organism-based; conditions: in vivo, read-out: Vdss
[8] = MRT in Sprague-Dawley rat at 1 mg/kg, iv measured for 25 hrs by LC-MS/MS analysis; type: ADME, organism-based; conditions: in vivo
[9] = AUC in Sprague-Dawley rat at 1 mg/kg, iv measured for 25 hrs by LC-MS/MS analysis; type: ADME, organism-based; conditions: in vivo
[10] = Cmax in Sprague-Dawley rat at 10 mg/kg, po measured for 25 hrs by LC-MS/MS analysis; type: ADME, organism-based; conditions: in vivo
[11] = AUC in Sprague-Dawley rat at 10 mg/kg, po measured for 25 hrs by LC-MS/MS analysis; type: ADME, organism-based; conditions: in vivo
[12] = Oral bioavailability in Sprague-Dawley rat at 10 mg/kg measured for 25 hrs by LC-MS/MS analysis; type: ADME, organism-based; conditions: in vivo
Rattus norvegicus [13] = organism: Rattus norvegicus; assay: Antidiabetic activity against Sprague-Dawley rat assessed as PDH activity in liver measured at 6 hrs; type: functional, organism-based; conditions: dose 0.1-10 mg/kg, route po
Rattus norvegicus [14] = assay: Antidiabetic activity against Zucker fatty rats assessed as decrease in glucose level in plasma at 10 mg/kg administered for 28 days; type: functional, organism-based; conditions: time 28.0 day
[15] = Drug concentration in Sprague-Dawley rat at 10 mg/kg, po measured at 8 hrs by LC-MS/MS analysis; type: ADME, organism-based; conditions: in vivo, read-out: Drug uptake
[16] = Drug concentration in Sprague-Dawley rat at 10 mg/kg, po measured at 25 hrs by LC-MS/MS analysis; type: ADME, organism-based; conditions: in vivo, read-out: Drug uptake

Row | Structure (SMILES) | IC50 [1] | solubility [2] | Papp [3] | remaining at 1 h [4] | further results
1 | COC(=O)c1ccc2c(c1)C(O)(C(F)(F)F)c1ccccc1-2 (racemic) | 0.6 µM | 45 µM (≈ 13.9 µg/mL) | 34.5 ×10⁻⁶ cm/s |  | 
2 | Cn1cc(-c2cccc3c2-c2ccccc2C3(O)C(F)(F)F)cn1 (racemic) |  | 6.9 µM (≈ 2.28 µg/mL) | 63.1 ×10⁻⁶ cm/s | 62% | 
3 | OCCn1cc(-c2cccc3c2-c2ccccc2C3(O)C(F)(F)F)cn1 (racemic) |  | 92 µM (≈ 33.2 µg/mL) | 68 ×10⁻⁶ cm/s | 94% | 
4 | OC1(C(F)(F)F)c2ccccc2-c2ccc(-c3ccccc3)cc21 (racemic) |  | ≤ 0.4 µM | 9.8 ×10⁻⁶ cm/s |  | 
5 | OCCCCOc1ccc2c(c1)C(O)(C(F)(F)F)c1ccccc1-2 (racemic) |  | 85 µM (≈ 28.8 µg/mL) | 48.3 ×10⁻⁶ cm/s |  | 
6 | O=C(c1ccc2c(c1)C(O)(C(F)(F)F)c1ccccc1-2)N1CCC1 (racemic) | 0.17 µM | 93 µM (≈ 31 µg/mL) | 47.5 ×10⁻⁶ cm/s | 49% | 
7 | Nc1nc(SCC(=O)c2ccccc2)nc2sc3c(c12)CCN(Cc1ccccc1)C3 | 1.9 µM | ≤ 0.3 µM |  | 6% | 
8 | O=C(O)CCCOc1ccc2c(c1)C(O)(C(F)(F)F)c1ccccc1-2 (racemic) |  | ≥ 95 µM | 61.5 ×10⁻⁶ cm/s | 92% | 
9 | CNC(=O)Cn1cc(-c2cccc3c2-c2ccccc2C3(O)C(F)(F)F)cn1 (racemic) |  | 94 µM (≈ 36.4 µg/mL) | 51.2 ×10⁻⁶ cm/s | 93% | 
10 | OC1(C(F)(F)F)c2ccccc2-c2c(-c3cccnc3)cccc21 (racemic) |  | 0.38 µM (≈ 0.124 µg/mL) | 18 ×10⁻⁶ cm/s | 80% | 
11 | Cn1cc(-c2cc(OCCCC(=O)O)cc3c2-c2ccccc2C3(O)C(F)(F)F)cn1 (stereo not drawn) | 0.02 µM |  | 28.4 ×10⁻⁶ cm/s | 91% | 
12 | O=C1CCCN1c1ccc2c(c1)C(O)(C(F)(F)F)c1ccccc1-2 (racemic) |  | 83 µM (≈ 27.7 µg/mL) | 39.5 ×10⁻⁶ cm/s | 29% | 
13 | O=C(c1cc(-c2cnn(CCO)c2)c2c(c1)C(O)(C(F)(F)F)c1ccccc1-2)N1CCC1 (racemic) |  |  | 6.5 ×10⁻⁶ cm/s | 94% | 
14 | CC(C)C1(O)c2ccccc2-c2ncccc21 (racemic) | 12 µM | 94 µM (≈ 21.2 µg/mL) |  | 97% | 
15 | CC(C)(C)Cn1cc(-c2cccc3c2-c2ccccc2C3(O)C(F)(F)F)cn1 (racemic) |  | ≤ 0.4 µM | 16.2 ×10⁻⁶ cm/s | 84% | 
16 | OC1(C(F)(F)F)c2ccccc2-c2c(-c3cnco3)cccc21 (racemic) |  | 17 µM (≈ 5.39 µg/mL) | 51.1 ×10⁻⁶ cm/s | 61% | 
17 | OC1(C(F)(F)F)c2ccccc2-c2c(-c3cncnc3)cccc21 (racemic) |  | 4.6 µM (≈ 1.51 µg/mL) | 56.2 ×10⁻⁶ cm/s | 96% | 
18 | Cc1cc(-c2cnn(CCO)c2)c2c(c1)C(O)(C(F)(F)F)c1ccccc1-2 (stereo not drawn) | 0.017 µM |  | 54.3 ×10⁻⁶ cm/s | 83% | IC50 [5]: > 1 µM; clearance [6]: 11.7 mL/min/kg; Vd [7]: 2.6 L/kg; MRT [8]: 3.9 h; AUC at 25 h [9]: 4.1 µM·h; Cmax [10]: 4.4 µM; AUC at 25 h [11]: 57 µM·h; bioavailability [12]: 140%; Activity (Rattus norvegicus [13]): Dose-Dependent Effect; Activity (Rattus norvegicus [14]): Active; concentration at 8 h [15]: 3.1 µM; concentration at 25 h [16]: 0.2 µM
19 | OCCn1cc(-c2cc(F)cc3c2-c2ccccc2C3(O)C(F)(F)F)cn1 (stereo not drawn) | 0.02 µM |  | 59.8 ×10⁻⁶ cm/s | 97% | 
20 | OC1(C(F)(F)F)c2ccccc2-c2ccccc21 | 5.9 µM | 87 µM (≈ 21.8 µg/mL) | 56.8 ×10⁻⁶ cm/s |  | 
21 | COC(=O)c1cccc2c1-c1ccccc1C2(O)C(F)(F)F (racemic) | 0.9 µM | 83 µM (≈ 25.6 µg/mL) | 17.4 ×10⁻⁶ cm/s |  | 
